Data as given in patent US12691101B2, “Compound and method for preventing or treating of respiratory diseases comprising the same as an active ingredient” (YONSEI UNIVERSITY, UNIVERSITY - INDUSTRY FOUNDATION (UIF), priority 2019, dated 2026).

Biological target: T1, hERG (Kv11.1) potassium channel (Homo sapiens, UniProt Q12809)
T1 construct: expressed in transfected cells
Test: hERG potassium channel activity, thallium flux in HEK293T cells
Assay type: cell-based
Description: (A) The inhibition of mouse pendrin (mPDS)-mediated Cl^−/I^− exchange activity by F56 was measured in CHO-K1 cells (mean±S.E., n=5). The indicated concentration of F56 was pretreated for 10 minutes. (B) Summary of dose-response for inhibition of the human pendrin (hPDS)-mediated (closed circle, FIG. (a), C) and mPDS-mediated (open circle) Cl^−/I^− exchange activity. (C-F) Representative traces of intracellular pH in CHO-K1 cells expressing SLC26A3, SLC26A6, SLC26A7 and SLC26A9 were shown. The application of Cl^− free solution induced intracellular alkalization by Cl^−/HCO3^− exchange. The indicated concentration of F56 was pretreated for 10 minutes. (G) the effect of F56 (100 μM) on the CFTR chloride channel activity was measured in FRT cells expressing human CFTR. […] (H) The effect of F56 (100 μM) on the AN01 chloride channel activity was measured in FRT cells expressing human AN01. […] (I) The effect of F56 on the hERG (Kv11.1) potassium channel activity was measured in HEK293T cells expressing human Kv11.1 (mean±S.E., n=4). […] (J) The effect of F56 on the 5-HT2A channel activity was measured in FRT cells expressing human 5-HT2A (mean±S.E., n=4). […]
(A) The effect of F10 (30 μM) on the CFTR channel was measured in FRT cells expressing human CFTR and mutant YFP. […] (B) The effect of F10 (30 μM) on the AN01 channel activity was measured in FRT cells expressing human and mutant YFP. […]

T1 sequence (Q12809 whole entry): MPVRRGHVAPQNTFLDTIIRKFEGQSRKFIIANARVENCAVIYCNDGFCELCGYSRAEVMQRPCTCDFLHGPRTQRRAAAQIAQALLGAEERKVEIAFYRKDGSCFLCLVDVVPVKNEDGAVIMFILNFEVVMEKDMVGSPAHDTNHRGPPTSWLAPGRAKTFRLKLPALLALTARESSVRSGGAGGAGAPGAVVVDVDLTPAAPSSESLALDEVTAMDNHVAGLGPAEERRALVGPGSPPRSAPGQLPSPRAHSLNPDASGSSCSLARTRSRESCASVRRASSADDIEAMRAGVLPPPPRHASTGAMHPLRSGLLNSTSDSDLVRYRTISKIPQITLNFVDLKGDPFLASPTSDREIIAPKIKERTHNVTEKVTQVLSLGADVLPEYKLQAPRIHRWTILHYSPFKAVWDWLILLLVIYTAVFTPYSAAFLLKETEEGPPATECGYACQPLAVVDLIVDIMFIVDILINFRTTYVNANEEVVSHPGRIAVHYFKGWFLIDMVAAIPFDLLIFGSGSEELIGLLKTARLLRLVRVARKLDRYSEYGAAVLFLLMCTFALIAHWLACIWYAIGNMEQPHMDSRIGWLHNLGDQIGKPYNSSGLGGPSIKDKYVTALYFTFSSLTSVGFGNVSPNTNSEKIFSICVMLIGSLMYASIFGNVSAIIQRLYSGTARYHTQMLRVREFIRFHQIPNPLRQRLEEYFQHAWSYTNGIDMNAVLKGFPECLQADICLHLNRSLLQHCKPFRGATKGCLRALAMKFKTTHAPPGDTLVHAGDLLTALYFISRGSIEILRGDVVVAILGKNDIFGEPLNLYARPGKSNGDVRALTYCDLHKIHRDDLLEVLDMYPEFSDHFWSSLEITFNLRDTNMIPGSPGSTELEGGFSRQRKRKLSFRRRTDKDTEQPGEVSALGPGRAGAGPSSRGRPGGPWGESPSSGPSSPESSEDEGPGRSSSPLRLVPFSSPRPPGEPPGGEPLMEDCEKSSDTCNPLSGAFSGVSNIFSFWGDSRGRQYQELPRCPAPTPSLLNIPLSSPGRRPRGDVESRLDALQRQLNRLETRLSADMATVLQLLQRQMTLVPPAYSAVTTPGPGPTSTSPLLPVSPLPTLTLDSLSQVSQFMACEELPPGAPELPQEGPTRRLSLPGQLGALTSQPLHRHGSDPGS

| SMILES | effect on hERG channel activity (30 μM) | effect on hERG channel activity (pretreated 10 minutes) |
| --- | --- | --- |
| CC(C)(C)c1ccc(C2=NC(=Cc3ccc[nH]3)C(=O)O2)cc1 [F10, 4-((1H-pyrrol-2-yl)methylene)-2-(4-(tert-butyl)phenyl)oxazol-5 (4H)-one] | did not show any effect | – |
| CC(C)(C)c1ccc(C2=NC(=Cc3cccs3)C(=O)O2)cc1 [F56, 2-(4-(tert-butyl)phenyl)-4-(thiophen-2-ylmethylene)oxazol-5(4H)-one] | – | not affected |
